Test results from patent publication US9446019B2, “Sparstolonin B based pharmaceutical agent for neuroblastoma treatment” (University of South Carolina, priority 2013, dated 2016).

Experiments:
[1] = ROS-generating activity in cell-free system (H2DCFDA, HRP); format: biochemical; settings: GSH 0.25 μM or 2.5 μM added to SsnB 10 μM + H2DCFDA + HRP
Protocol: FIG. 2D and FIG. 2E illustrate the ROS generating capacity of SsnB evaluated in a cell-free system containing H2DCFDA (25 μM), horseradish peroxidase (HRP, 5 units/ml), SsnB (10 μM) and glutathione (GSH, 0.25 or 2.5 μM) alone or in various combinations. Optical density (O.D.) at 540 nm were taken at different time points and plotted.
In a reaction system, after the removal of acetate group by cellular esterases and oxidation by reactive oxygen species, the non-fluorescent carboxy-H2DCFDA dye is oxidized to fluorescent molecule carboxy-DCF. To measure the ROS-generating activity of SsnB, the oxidation of carboxy-H2DCFDA dye was monitored in a cell-free system containing carboxy-H2DCFDA dye, horseradish peroxidase (HRP) and SsnB at 540 nm. HRP was used to supply esterase since without esterase carboxy-H2DCFDA is not sensitive to oxidant. […] After addition of HRP (5 units/ml) in the reaction mixture containing SsnB (10 μM)+H2DCFDA dye (25 μM), the OD value increased by 2% in the first 240 sec and further increased by 8% after 15 min compared to H2DCFDA+HRP reaction, indicating the increased oxidation of H2DCFDA to the fluorescent compound.

[2] = tested on: caspase-3 in neuroblastoma cells; test: Cleaved caspase-3 by immunofluorescence and Western blotting; format: cell-based, human; settings: NAC 1 and 5 mM pretreatment, SsnB 10 μM; SH-SY5Y and SK-N-BE(2) cells
Protocol: For immunofluorescence staining, cells grown in Lab-TekII chamber slides (Fisher Scientific, Pittsburgh, Pa.) were treated with SsnB in complete culture medium. After treatments, cells were washed with 1×PBS, fixed with 4% paraformaldehyde/PBS for 20 min, and permeabilized with 0.2% Triton X-100/PBS for 10 min at room temperature. Cells were washed with 1×PBS for 3 times and blocked with 5% immunoglobulin (IgG) free-bovine serum albumin (BSA; Jackson ImmunoResearch Laboratories, West Grove, Pa.) in 1×PBS for overnight at 4° C. Cells were incubated with antibody raised against active form of caspase-3 (Cell Signaling Technology, Danvers, Mass.) diluted in 2.5% BSA/PBS for overnight at 4° C. Primary antibodies were detected with secondary antibodies conjugated with fluorescein isothiocyanate (FITC; Santa Cruz Biotechnology, Dallas, Tex.) for 2 h at room temperature. After washing with 1×PBS, cells were mounted with antifade Vectashield mounting media (Vector Laboratories, Burlingame, Calif.), and signals were visualized under Nikon-E600 fluorescence microscope. Nuclei were counterstained with 4′,6-diamidino-2-phenylindole (DAPI; Sigma).
After treatment with SsnB, cells were collected, washed with 1×PBS, and lysed with 1× cell lysis buffer (Cell Signaling Technology, Danvers, Mass.) containing phenylmethylsulfonyl fluoride (PMSF) and protease inhibitors (aprotinin and leupeptin) for 30 min on ice, and centrifuged at 12000×rpm for 10 min at 4° C. Supernatant (total cell protein) was collected and stored at −80° C. Protein concentration was determined by bicinchoninic acid method using BCA protein assay kit (Pierce/ThermoScientific, Waltham, Mass.). Equal amount of proteins were diluted with 5× Laemmli samples loading buffer and boiled for five minutes. The proteins were subjected to sodium dodecyl sulfate (SDS)-polyacrylamide gel electrophoresis and analyzed by Western blots. Briefly, after electrophoresis, proteins were transferred on polyvinylidene difluoride (PVDF) membrane at 100 volt for 3 h in cold room. Membrane was blocked with 5% non-fat dry milk/TBST (20 mM Tris-Cl, pH 7.4; 150 mM NaCl with 0.1% Tween-20) for 4 h at room temperature followed by incubation in primary antibodies diluted in 2.5% non-fat dry milk/TBST for overnight at 4° C. After washing with TBST, membrane was incubated with secondary antibodies (horseradish peroxidase-conjugated goat anti-rabbit or goat anti-mouse IgG; Santa Cruz Biotechnology, Dallas, Tex.) diluted in 2.5% non-fat dry milk/TBST for 3 h at room temperature. Signals were detected by chemiluminiscence detection kit (Pierce/Thermo Fisher Scientific, Rockford, Ill.). Primary antibodies used were cleaved caspase-3 and β-actin (Cell Signaling Technology), N-myc and p53 (Santa Cruz Biotechnology).
At cellular level, mitochondria- or receptor (Fas/FasL)-mediated pathways activate caspase signaling cascade which in turn induces DNA damage and initiates programmed cell death (apoptosis). To determine whether SsnB-induced cell death is mediated by caspase activation, Western blotting as well as immunofluorescence assay were performed to detect the active form of caspase-3 in neuroblastoma cells treated with SsnB for 2 days (SH-SY5Y and IMR-32 cells), 3 days (NGP cells) or 4 days (SKNF-1 and SK-N-BE(2) cells). The number of cleaved caspase-3 positive cells were quantitated by ImageJ programme and plotted. […]

[3] = tested on: human neuroblastoma cell lines (SH-SY5Y, SKNF-1, NGP, IMR-32 and SK-N-BE(2) cells); test: MTT cell viability assay; format: cell-based; settings: NAC 1 mM or 5 mM pretreatment 1 h, then SsnB 10 μM; p<0.05 vs SsnB alone
Excerpt: Human neuroblastoma cell lines (SH-SY5Y, IMR-32, SK-N-BE(2) and SKNF-1 cells) were obtained from The American Type Culture Collection (ATCC; Manassas, Va.), and NGP cells were kind gift from Garrett M. Brodeur (The Children's Hospital of Philadelphia, Philadelphia, Pa.). All cell lines were maintained in complete Dulbecco's Modified Eagle's Medium (DMEM) supplemented with 10% fetal bovine serum (FBS; Atlanta Biologicals, Lawrenceville, Ga.) and 1× antibiotic-antimycotic solution (containing 100 U/ml penicillin, 100 μg/ml streptomycin and 0.25 μg/ml amphotericin B), and grown at 37° C. in a humidified incubator with 5% CO2. Stock solution of SsnB was prepared in dimethyl sulfoxide (DMSO). Cells treated with different concentrations of SsnB in DMEM with 10% FBS were grown for subsequent days. Cells treated with equal volume of DMSO were used as control.
The viability of SsnB-treated cells was determined by MTT assay following manufacturer's instructions (Roche diagnostics corporation, Indianapolis, Ind.). Briefly, cells (1×10^4 cells/well) grown in 96-well cell culture plate were incubated with or without SsnB in 100 μl of complete culture medium with 10% FBS. After treatments, cells were incubated with 10 μl of MTT reagent for 4 h and then incubated overnight in solubilization buffer (100 μl) at 37° C. Absorbance of the formazan product was read at 575 nm in spectramax spectrophotometer (Molecular Devices, Sunnyvale, Calif.). A reference wavelength of 690 nm was used to detect background. The measured absorption directly correlated with the number of viable cells in culture. The experiments were performed in triplicate and repeated at least three times.
MTT assay was carried out to examine the effects of SsnB on viability of all the above listed neuroblastoma cells. After 2 days (SH-SY5Y and IMR-32), 3 days (NGP cells) or 4 days (SKNF-1 and SK-N-BE(2) cells) treatment with SsnB (1, 5, 10 and 20 μM), MTT cell viability assays were performed.

[4] = tested on: reactive oxygen species in neuroblastoma cells; test: ROS generation, H2DCFDA fluorometry assay; format: cell-based, human; settings: NAC 1 and 5 mM, SsnB 10 μM; p<0.05 vs SsnB alone
Protocol: The production of reactive oxygen species (ROS) in SsnB-treated neuroblastoma cells was detected by a cell-permeable fluorescence probe H2DCFDA (carboxy-2′,7′-dichlorodihydrofluorescein diacetate) according to the manufacturer's instructions (Invitrogen, Carlsbad, Calif.). Briefly, neuroblastoma cells were cultured in DMEM with 10% FBS in Lab-TekII chamber slides (Fisher Scientific, Pittsburg, Pa.) and treated with SsnB for 2 days (SH-SY5Y and IMR-32 cells), 3 days (NGP cell) or 4 days (SKNF-1 and SK-N-BE(2) cells). After treatments, cells were washed with Hank's buffered salt solution (HBSS; Thermo Scientific, Waltham, Mass.) and incubated with 25 μM of carboxy-H2DCFDA dye for 30 min at 37° C. in dark. Nuclei were counterstained with DAPI. Cells were washed three times with HBSS, mounted with Vectashield mounting medium (Vector Laboratories), and immediately examined under Nikon-E600 fluorescence microscopy equipped with fluorescein isothiocyanate (FITC) filter. Oxidation of H2DCFDA probe occurs almost exclusively in the cytosol, and generates a fluorescence that is proportional to ROS generation in that cell. As a negative control, cells without H2DCFDA dye were used to detect autofluorescence. The fluorometric analysis to detect generation of ROS was performed. Briefly, after treatments with SsnB as mentioned above, cells were labeled with carboxy-H2DCFDA dye (25 μM) for 30 min at 37° C. Cells were trypsinized, washed, and re-suspended in PBS and fluorescence intensity was monitored at excitation wavelength 485 nm and emission wavelength 530 nm with a spectramax spectrophotometer (Molecular Devices, Sunnyvale, Calif.).
SsnB-induced generation of ROS was also evaluated by fluorometry assay. Neuroblastoma cells as treated above were incubated with H2DCFDA dye for 30 min and the fluorescence intensity was measured at 485 nm (excitation wavelength) and 530 nm (emission wavelength).

| Structure (SMILES) | OD value on addition of GSH [1] | activation of caspase-3 in SsnB-treated cells [2] | viability of SsnB-treated cells [3] | ROS levels in SsnB-treated cells [4] |
| --- | --- | --- | --- | --- |
| N[C@@H](CCC(=O)N[C@@H](CS)C(=O)NCC(=O)O)C(=O)O [GSH, glutathione, reference compound] | lowers the OD value in a dose dependent manner |  |  |  |
| CC(=O)NCCSSCCN [NAC, N-acetylcystamine, reference compound] |  | inhibited the activation of caspase-3 | significantly increased the viability | significantly reduced ROS levels |
